Data taken from US6653354B2, “NMDA antagonist comprising xenon” (priority 1999, dated 2003).
Entries after “also recorded” stand apart in the source; their conditions may differ.

Assays:
humans = details: cited from earlier work
NMDA receptors = type: cell-based, rat; details: 80% xenon
[1] = tested on: GABAergic synapses (GABAA receptors) of hippocampal neurons; type: cell-based, rat
Protocol: (§1) Hippocampal neurons were grown in culture using methods described previously (Segal M M et al, J. Neurophysiol. 1990, 64:1390-1399; Bekkers J M et al, Proc. Natl. Acad. Sci. U.S.A. 1991, 88:7834-7838; Mennerick S et al, J. Neurophysiol. 1995, 73:320-332). Briefly, hippocampi from Sprague Dawley rats (postnatal day 1-3) were dissected, roughly sliced and agitated in a papain-containing solution (20 units ml^−1) for 30 minutes at 37 EC. After washing with enzyme-free solution, the tissue was gently triturated with a fire-polished Pasteur pipette and the cells were plated out at a density of 8-10×10^4 cells ml^−1 and cultured (95% air/5% CO2) at 37° C. Glass coverslips used for culturing the cells were first coated with agarose (0.15% w/v) and then sprayed with a fine mist of poly-D-lysine (PDL) and collagen (0.1 mg ml^−1 PDL and 0.5 mg ml^−1 rat-tail collagen) from a glass micro-atomiser and sterilized by UV exposure. This produced micro-islands of permissive substrate with diameters of between 100 and 1000 μm. At 3-4 days after plating, when the glial cell layer was about 80% confluent, an anti-mitotic agent (cytosine β-D-arabinofuranoside, 5 μM) was added to arrest glial cell proliferation. Neuronal cultures were then allowed to mature for another 4-9 days. We used micro-islands which contained single isolated neurons whose axonal processes and dendritic trees formed multiple self-synapses (autapses). This procedure provided a large population of phenotypically identical monosynaptic connections.
(§2) The neurons were voltage-clamped using the whole-cell recording technique (Axopatch 200 amplifier, Axon Instruments, Foster City, Calif.). Electrodes were fabricated from borosilicate glass and typically had resistances of between 3-5 MΩ. Series resistance was compensated by 75-90%. Neurons were voltage-clamped at −60 mV, and synaptic responses were stimulated by a 2 ms depolarising pulse to +20 mV. […] For the synaptic measurements, data were sampled at 50 kHz, filtered at 20 kHz (−3 dB, 8-pole Bessel) and stored on a computer. The extracellular recording solution was (mM) 137 NaCl, 5 KCl, 3 CaCl2, 5 HEPES, 10 glucose, 0.001 glycine, 0.0001 strychnine-HCl, titrated to pH 7.3 with NaOH; and the intracellular (pipette) solution was (mM) 140 KCl, 4 NaCl, 0.5 EGTA, 2 MgATP, 10 HEPES, titrated to pH 7.25 with KOH.
(§3) Xenon solutions were prepared by first bubbling pure gases (oxygen, nitrogen or xenon) through fine sintered-glass bubblers in 250- or 500-ml Drechsel bottles filled with extracellular recording saline. […] (To minimise oxidization, the neurotoxins and neurotransmitters were excluded from the fully oxygenated saline.) During bubbling, the solutions were continually stirred at room temperature. These solutions were then mixed to achieve the desired final concentrations of the gases. Our control solutions usually contained 80% of the nitrogen solution and 20% of the oxygen solution, while our test solutions usually contained 80% of the xenon solution and 20% of the oxygen solution. Using a Bunsen water/gas partition coefficient of 0.0965 (Smith R A et al, Biochim. Biophys. Acta 1981, 645:327-338) we calculate that our standard test solution contained 3.4 mM xenon. Xenon (research grade, 99.993% pure) was supplied by BOC gases, Guildford, Surrey, UK. In all cases xenon was pre-applied to the neurons for at least 30 seconds before the initiation of synaptic currents.
(§4) In order to obtain an estimate for the total charge transfer, the EPSCs or IPSCs were numerically integrated.

rats [2] = details: cited from earlier work
rhesus monkeys = experiment: MAC in rhesus monkeys; type: in vivo; details: 37° C.
Protocol: (§5) The gaseous concentration of xenon which prevents a response to a painful stimulus (i.e. MAC) appears to vary among species, being 71% atm in humans (Cullen SC et al, Anesthesiology 1969, 31:305-309), 98% atm in rhesus monkeys (Whitehurst S L et al, J. Neurosurg. Anesthesiol. 1994, 6:275-279) and 161% atm in rats (Koblin D D et al, Anesth. Analg. 1998, 87:419-424). When these values are converted to free aqueous concentrations at 37° C. (Franks N P et al, Br. J. Anaesth. 1993, 71:65-76; Franks N P et al, Anesthesiology, 1996, 84:716-720) using an Ostwald water/gas partition coefficient of 0.0887 (Weathersby P K et al, Undersea Biomed. Res. 1980, 7:277-296), the values obtained are 2.5 mM, 3.4 mM and 5.6 mM for humans, monkeys and rats respectively, with the average value being 3.8 mM. For the experiments described herein, performed at room temperature, the concentration of xenon present in the standard test solution was 3.4 mM. […] This is illustrated with representative traces in FIG. 2.

rats [3] = experiment: MAC in rats; type: in vivo; details: 37° C.
Protocol: as §5

GABAA receptors = experiment: Currents evoked by exogenously applied GABA in voltage-clamped cultured hippocampal neurons; type: cell-based; details: 100% xenon; cultured rat hippocampal neurons
[4] = tested on: glutamatergic synapses (NMDA receptor slow component, AMPA/KA receptor fast component) of hippocampal neurons; experiment: Excitatory (glutamatergic) postsynaptic currents, voltage-clamped autaptic hippocampal neurons; type: cell-based, rat
Protocol: as §1, §2, §3, §4

[5] = inhibitory currents + 3.4 mM xenon
[6] = excitatory currents + 3.4 mM xenon

For [Xe] [xenon], the “half maximal effective concentration EC50 as a human anaesthetic” value (humans; human) is listed as 71 % v/v, the “gaseous concentration which prevents a response to a painful stimulus (MAC)” value (humans; humans) is listed as 71 % atm and the “change of NMDA EC50 or Hill coefficient in presence of xenon” value (NMDA receptors) is listed as “no significant change; also recorded: does not significantly change”. For the same compound, the “effect on inhibitory (GABAergic) postsynaptic currents” value ([1]; 3.4 mM xenon) was “negligible effects; also recorded: affected neither the peak value, nor the time course; also recorded: no significant effect”, the “Ipeak % change (means ± SEM)” value ([1]; inhibitory currents + 3.4 mM (~1 MAC) xenon) was −3.1 ± 2.2% and the “Decay half-time % change (means ± SEM)” value [1, 5] was −3.4 ± 2.4%. The “Ifast % change (means ± SEM)” value [1, 5] was −4.3 ± 2.8%, the “Islow % change (means ± SEM)” value [1, 5] was 18.8 ± 12.4% and the “Qfast % change (means ± SEM)” value [1, 5] was 1.5 ± 7.2%. The “Qslow % change (means ± SEM)” value [1, 5] was 12.6 ± 8.4%, the “Total charge transfer % change (means ± SEM)” value [1, 5] was −2.3 ± 3.9% and the “τfast % change (means ± SEM)” value [1, 5] was −1.3 ± 3.5%. The “τslow % change (means ± SEM)” value [1, 5] was 0.8 ± 6.0%, the “gaseous concentration which prevents a response to a painful stimulus (MAC)” value (rats [2]) was 161 % atm and the “MAC converted to free aqueous concentration” value (rhesus monkeys) was 3.4 mM. For the same compound, the “MAC converted to free aqueous concentration” value (rats [3]) was 5.6 mM, the “effect on currents activated by 3 μM GABA” value (GABAA receptors) was “not significantly affected” and the “effect on the fast AMPA/KA receptor-mediated component” value ([4]; 3.4 mM (80%) xenon) was “barely changes; also recorded: only a small effect”. The “effect on the glutamatergic (excitatory) synaptic current” value ([4]; 3.4 mM xenon) was “strongly depressed; also recorded: greatly depressed”, the “Decay half-time % change (means ± SEM)” value [4, 6] was −22.7 ± 2.5% and the “Ifast % change (means ± SEM)” value [4, 6] was −4.1 ± 5.2%. The “Ipeak % change (means ± SEM)” value [4, 6] was −13.5 ± 1.8%, the “Islow % change (means ± SEM)” value [4, 6] was −70.3 ± 2.4% and the “Qfast % change (means ± SEM)” value [4, 6] was −11.4 ± 5.6%. For the same compound, the “Qslow % change (means ± SEM)” value [4, 6] was −68.2 ± 4.2%, the “Total charge transfer % change (means ± SEM)” value [4, 6] was −55.6 ± 2.7% and the “τfast % change (means ± SEM)” value [4, 6] was −12.3 ± 1.8%. The “τslow % change (means ± SEM)” value [4, 6] was −6.7 ± 6.5%.
